Active and inactive are the calls of the source. The calls are words filed in the database; no cut-off is given here.
What was measured:
[1] = tested on: Calf thymus DNA; experiment: Binding affinity to calf thymus DNA assessed as change in melting temperature at 0.2 to 1.6 uM by […]; type: nucleic-acid assay; conditions: Bos taurus
[2] = tested on: HeLa; experiment: Induction of apoptosis in human HeLa cell line at 200 uM after 24 hrs by annexin V/conjugated 7-AAD nexin assay; type: functional
[3] = tested on: Nucleic Acid; experiment: Binding affinity to 22 mer c-MYC DNA G-quadruplex assessed as change in melting temperature at 0.2 uM by FRET assay; type: nucleic-acid assay
[4] = molecular target: Nucleic Acid; experiment: Binding affinity to 22 mer c-MYC G-quadruplex assessed as effect on ligand-telomeric complex formation by […]; type: nucleic-acid assay
[5] = tested on: Nucleic Acid; experiment: Binding affinity to 22 mer c-MYC G-quadruplex by isothermal titration calorimetry; type: nucleic-acid assay
[6] = tested on: Nucleic Acid; experiment: Binding affinity to 22 mer c-MYC DNA G-quadruplex assessed as change in melting temperature at 1.2 uM by FRET assay; type: nucleic-acid assay
[7] = tested on: HeLa; experiment: Cytotoxicity against human HeLa cells at 100 uM after 5 days by propidium iodide staining-based flow cytometry; type: functional, cell-based
[8] = tested on: Nucleic Acid; experiment: Binding affinity to 22 mer c-MYC DNA G-quadruplex assessed as change in melting temperature at 0.4 uM by FRET assay; type: nucleic-acid assay
[9] = tested on: Nucleic Acid; experiment: Binding affinity to 22 mer c-MYC DNA G-quadruplex assessed as induction of quadruplex folding at 5 to 10 uM by CD spectroscopy; type: nucleic-acid assay
[10] = tested on: Nucleic Acid; experiment: Binding affinity to 22 mer c-MYC DNA G-quadruplex assessed as change in melting temperature at 0.8 uM by FRET assay; type: nucleic-acid assay
[11] = tested on: HeLa; experiment: Downregulation of c-MYC gene expression in human HeLa cell line at 200 uM after 24 hrs by RT-PCR analysis; type: functional
[12] = tested on: HeLa; experiment: Downregulation of c-MYC gene expression in human HeLa cell line at 100 uM after 24 hrs by RT-PCR analysis; type: functional

Row | Activity [1] | Tm [3] [°C] | Kd [4] [nM] | K [5] [×10⁵ /M] | Tm [6] [°C] | Tm [8] [°C] | Activity [9] | Tm [10] [°C] | Structure (SMILES) | Activity [2] [%] | Activity [7] | inhibition at 200 µM [11] [%] | inhibition at 100 µM [12] [%]
1 | inactive | 2 | 1200 | 3.21 | 8 | 4 | Active | 6 | NCC1=C2CNC(=O)C3=CC(CN)=C(CNC(=O)c4cc(CN)c(o4)CNC(=O)C(=C1)O2)O3.O=C(O)C(F)(F)F.O=C(O)C(F)(F)F.O=C(O)C(F)(F)F | 18 | inactive | 50 | –
2 | inactive | 5 | 2100 | 5.7 | 20 | 12 | Active | 15 | NCCC(=O)NCC1=C2CNC(=O)C3=CC(CNC(=O)CCN)=C(CNC(=O)c4cc(CNC(=O)CCN)c(o4)CNC(=O)C(=C1)O2)O3.O=C(O)C(F)(F)F.O=C(O)C(F)(F)F.O=C(O)C(F)(F)F | 22 | inactive | – | 50

Source: ChEMBL document CHEMBL1208757, “Furan based cyclic homo-oligopeptides bind G-quadruplex selectively and repress c-MYC transcription” (Bioorg Med Chem Lett, 2010)
